We go through three compounds from patent US6391914B1, “Optically active aminopentane derivatives” (Fujimoto Brothers Co., Ltd., priority 1998, dated 2002).

Structures can show the parent of a compound that is named as a salt.

One series deals with T1, D1 receptor (Rattus norvegicus, UniProt P18901).
T1 construct: from tissue; host or cells: rat brain membranes
In words: Receptor affinity, 3H-SCH-23390 binding. On the set-up: species or system rats. The protocol: (§1) The receptor solution was prepared as follows. After the rats were decapitated, brain was immediately isolated and weighed. Thereafter, brain samples were homogenized in ten times volumes of ice-cold 0.35 mol/L sucrose (pH 7.4) using glass homogenizer with Teflon pestle, which was revolted by motors. The homogenate was centrifuged at 4° C. at 900×g for 10 min and the supernatant was, furthermore, recentrifuged at 4° C. at 22,000×g for 20 min. The precipitate was suspended with addition of 5 mmol/L phosphate buffer solution (pH 7.4). After the suspension was incubated at 37° C. for 30 min, the suspension was recentrifuged at 4° C. at 20,000×g for 20 min. […]
(§2) ^3H-prazocin was used as a ligand. […] In addition, the nonspecific binding was evaluated with binding value of ^3H-prazocin in the presence of 0.1 μmol/L prazocin. […] After 10 ml of scintillation cocktail was put in it, the radioactivity was measured. Affinity of the compounds of the invention to α1 receptor was evaluated from the inhibition rate of binding between α1 receptor and the ligand.
(§3) Affinities of the compounds of the invention to receptors of α2, D1, D2, 5-HT1 and 5-HT2 were respectively determined in the same manner, while used 0.7 nmol/L ^3H-rauwolscine, 1.4 nmol/L ^3H-SCH-23390, 2.0 nmol/L spiperone, 2 nmol/L ^3H-5-HT and 0.5 nmol/L ^3H-ketanserin as each ligands. […]

The next series has as its target α1 receptor. Put plainly: Receptor affinity, 3H-prazocin binding. On the set-up: species or system rats. The note with it: 0.25 nmol/L 3H-prazocin; read-out: Affinity to α1 receptor: concentration showing 50% inhibition between ligand and receptor. The protocol:
The receptor solution was prepared as follows. After the rats were decapitated, brain was immediately isolated and weighed. Thereafter, brain samples were homogenized in ten times volumes of ice-cold 0.35 mol/L sucrose (pH 7.4) using glass homogenizer with Teflon pestle, which was revolted by motors. The homogenate was centrifuged at 4° C. at 900×g for 10 min and the supernatant was, furthermore, recentrifuged at 4° C. at 22,000×g for 20 min. The precipitate was suspended with addition of 5 mmol/L phosphate buffer solution (pH 7.4). After the suspension was incubated at 37° C. for 30 min, the suspension was recentrifuged at 4° C. at 20,000×g for 20 min. The precipitate was resuspended in 10 ml of 5 mmol/L phosphate buffer solution (pH 8.0) to be receptor solution.
^3H-prazocin was used as a ligand. 0.25 nmol/L of ^3H-prazocin, the compounds of the invention and the receptor solution, which were respectively prepared in 5 mmol/L phosphate buffer (pH 8), were put in tube and the mixture was incubated at 25° C. for 90 min. In addition, the nonspecific binding was evaluated with binding value of ^3H-prazocin in the presence of 0.1 μmol/L prazocin. […] After 10 ml of scintillation cocktail was put in it, the radioactivity was measured. Affinity of the compounds of the invention to α1 receptor was evaluated from the inhibition rate of binding between α1 receptor and the ligand.

The target in the next series is T2, 5-HT2 receptor (Rattus norvegicus, UniProt P14842).
T2 construct: from tissue; host or cells: rat brain membranes
Put plainly: Receptor affinity, 3H-ketanserin binding. On the set-up: species or system rats. The protocol:
as §1, §2, §3

The subject of series [1] is brain tissues (striatum, substantia nigra, tuberculum olfactorium, locus coeruleus and raphe). Put plainly: Biogenic amines released from brain tissue after s.c. administration. It is filed as in vivo, Wistar rats. As to the method: The method described in Life Sci., 56, 611-620 (1995) was used. After Wistar rats were decapitated, appropriate brain tissues (striatum, substantia nigra, tuberculum olfactorium, locus coeruleus and raphe) were isolated quickly and soaked in oxygenated (95% O2 and 5% CO2) Krebs' solution at 37° C. The composition of Krebs' solution (mmol/L) was as follows: NaCl 111, KCl 4.7, CaCl2 2.5, MgSO4 1.64, NaHCO3 25, KH2PO4 1.2, glucose 12 mg/L ascorbic acid and 20 mg/l EDTA-2Na. The preparations, submerged in one organ bath, were as follows: 1) four pieces of striatum (each halved), 2) four pieces of substantia nigra, 3) four pieces of tuberculum olfactorium, 4) eight pieces of locus coeruleus, 5) eight pieces of raphe. After incubating the tissue for 20 min, the Krebs' solution was exchanged. After the tissue was submerged for 20 min in Krebs' solution containing the compounds of the invention, the biogenic amine released during this period was quantified. The compounds of the invention, the (+)-isomer, the racemic compound and control compound, were respectively dissolved in saline, and subcutaneously administered 30 min before dissection of the brain samples. In the case of noradrenaline and dopamine, samples were purified on microcolumns (BDH Chemicals Ltd.) filled with 60 mg of alumina according to the method described in J. Pharmacol. Exp. Ther., 138, 360-372 (1962). In the case of serotonin, samples were purified on 15 mg Sephadex G-10 microcolumns (Pharmacia). Dopamine, noradrenaline and serotonin were quantified by high performance liquid chromatography (Waters 746 data module) with electrochemical detection (Waters 460 electrochemical detector). Waters Resolve 5μ Spherical C18 3.9×150 mm column was used as separating column and triethylamine-phosphate buffer (pH 5.2) containing 200/mg/L octaine sulfonate sodium and 18 mg/L EDTA-2Na with 6% acetonitrile, was used as mobile phase. The amount of appropriate amine released for 20 min was noted as nmol/g tissue. The differences among means were tested using Student's t-test. Significant level was set at P<0.05.

In the next series the target is 5-HT1 receptor. Put plainly: Receptor affinity, 3H-5-HT binding. On the set-up: species or system rats. Conditions: 2 nmol/L 3H-5-HT; read-out: Affinity to 5-HT1 receptor: concentration showing 50% inhibition between ligand and receptor. As to the method: as §1, §2, §3
A further series has as its target T3, D2 receptor (Rattus norvegicus, UniProt P61169).
T3 construct: from tissue; host or cells: rat brain membranes
In words: Receptor affinity, spiperone binding. On the set-up: species or system rats. The protocol:
as §1, §2, §3

For the next series, the system named is mice. Put plainly: Toxicity test in mice in the single administration. It is filed as in vivo. The note with it: 100 mg/kg p.o., observed two weeks.

T2 sequence (P14842 whole entry): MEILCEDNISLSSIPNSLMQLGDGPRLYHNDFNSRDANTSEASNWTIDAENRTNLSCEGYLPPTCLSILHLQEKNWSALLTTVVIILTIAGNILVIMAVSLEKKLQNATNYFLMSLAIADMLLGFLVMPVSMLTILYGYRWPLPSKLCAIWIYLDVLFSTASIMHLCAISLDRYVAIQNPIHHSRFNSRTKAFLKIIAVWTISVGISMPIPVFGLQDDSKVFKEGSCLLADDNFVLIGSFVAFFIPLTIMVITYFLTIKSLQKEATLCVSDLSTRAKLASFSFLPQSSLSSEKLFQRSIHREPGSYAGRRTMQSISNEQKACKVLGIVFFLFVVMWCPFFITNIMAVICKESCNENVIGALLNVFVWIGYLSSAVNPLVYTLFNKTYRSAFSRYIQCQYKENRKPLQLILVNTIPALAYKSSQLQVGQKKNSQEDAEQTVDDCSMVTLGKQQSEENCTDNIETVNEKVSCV
T1 sequence (P18901 whole entry): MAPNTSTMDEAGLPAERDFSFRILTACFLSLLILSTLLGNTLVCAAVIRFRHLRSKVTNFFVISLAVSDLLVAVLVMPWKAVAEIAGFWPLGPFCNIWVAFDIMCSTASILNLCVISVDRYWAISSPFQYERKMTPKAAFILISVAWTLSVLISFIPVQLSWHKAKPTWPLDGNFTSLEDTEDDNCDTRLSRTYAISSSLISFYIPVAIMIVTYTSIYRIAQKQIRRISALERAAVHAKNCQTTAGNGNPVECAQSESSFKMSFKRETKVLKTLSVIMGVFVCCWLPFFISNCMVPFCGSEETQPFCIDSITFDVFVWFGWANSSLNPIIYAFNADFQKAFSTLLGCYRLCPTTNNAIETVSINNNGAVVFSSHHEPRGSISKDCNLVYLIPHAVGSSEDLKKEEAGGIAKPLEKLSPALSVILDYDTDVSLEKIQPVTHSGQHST
T3 sequence (P61169 whole entry): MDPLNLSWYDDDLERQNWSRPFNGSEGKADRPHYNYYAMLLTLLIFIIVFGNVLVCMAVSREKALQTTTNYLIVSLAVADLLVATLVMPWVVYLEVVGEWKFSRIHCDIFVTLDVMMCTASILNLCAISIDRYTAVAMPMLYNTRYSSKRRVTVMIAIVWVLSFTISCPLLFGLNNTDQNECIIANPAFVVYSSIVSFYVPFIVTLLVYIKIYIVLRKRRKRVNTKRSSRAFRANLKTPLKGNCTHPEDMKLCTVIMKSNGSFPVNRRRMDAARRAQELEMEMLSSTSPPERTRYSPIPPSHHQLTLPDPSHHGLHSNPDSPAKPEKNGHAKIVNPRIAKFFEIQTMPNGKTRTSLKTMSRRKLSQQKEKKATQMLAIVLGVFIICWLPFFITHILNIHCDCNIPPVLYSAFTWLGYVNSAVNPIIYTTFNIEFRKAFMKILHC

With `CCCNC(CCC)Cc1cc2ccccc2o1.Cl` (racemic) [Racemic compound, (±)-1-(benzofuran-2-yl)-2-propylaminopentane hydrochloride], the IC50 at D1 receptor was > 10 µM. For the same compound, the IC50 at α1 receptor was > 10 µM. The compound also came in with an IC50 at 5-HT2 receptor of 20 µM. In addition, in series [1] (dose 0.0100 mg/kg s.c.), the “Amount of dopamine released, Striatum” value was 5.3 ± 0.14 nmol/g · tissue. 20 min; the “Amount of dopamine released, Substantia Nigraia” value (shortened to “Amount … Substantia Nigraia”) was 6.6 ± 0.04 nmol/g · tissue. 20 min; the “Amount of dopamine released, Tuberculum Olfactorium” value (from here on “Amount … Tuberculum Olfactorium”) was determined as 6.5 ± 0.20 nmol/g · tissue. 20 min; the “Amount of noradrenaline released, Locus Coeruleus” value (“Amount of noradrenaline released” for short) amounted to 4.3 ± 0.20 nmol/g · tissue. 20 min. For the same compound, in series [1] (dose 0.0100 mg/kg s.c.), the “Amount of serotonin released, Raphe” value is reported as 0.457 ± 0.04 nmol/g · tissue. 20 min. For the same compound, the IC50 on 5-HT1 receptor is > 10 µM. Further, the IC50 at D2 receptor is > 10 µM.
As to `CCCNC(CCC)Cc1cc2ccccc2o1.Cl` (single isomer, unassigned; (+)) [(+)-Isomer, (+)-1-(benzofuran-2-yl)-2-propylaminopentane hydrochloride], the IC50 at 5-HT2 receptor is > 10 µM. In addition, in series [1] (dose 0.0005 mg/kg s.c.), the “Amount of dopamine released, Striatum” value worked out at 4.4 ± 0.13 nmol/g · tissue. 20 min; the “Amount … Substantia Nigraia” value came out at 13.8 ± 0.25 nmol/g · tissue. 20 min; the “Amount … Tuberculum Olfactorium” value amounted to 6.7 ± 0.06 nmol/g · tissue. 20 min; the “Amount of noradrenaline released” value is given as 10.3 ± 0.35 nmol/g · tissue. 20 min. Further, the “Amount of serotonin released, Raphe” value in series [1] (dose 0.0005 mg/kg s.c.) is recorded as 1.785 ± 0.01 nmol/g · tissue. 20 min. Besides, in series [1] (dose 0.0025 mg/kg s.c.), the “Amount of dopamine released, Striatum” value was determined as 4.4 ± 0.10 nmol/g · tissue. 20 min; the “Amount … Substantia Nigraia” value was determined as 8.4 ± 0.14 nmol/g · tissue. 20 min; the “Amount … Tuberculum Olfactorium” value was 4.8 ± 0.25 nmol/g · tissue. 20 min; the “Amount of noradrenaline released” value was determined as 7.4 ± 0.15 nmol/g · tissue. 20 min. Further, the “Amount of serotonin released, Raphe” value in series [1] (dose 0.0025 mg/kg s.c.) came out at 1.138 ± 0.05 nmol/g · tissue. 20 min. In series [1] (dose 0.0500 mg/kg s.c.), the “Amount of dopamine released, Striatum” value is 4.4 ± 0.17 nmol/g · tissue. 20 min; the “Amount … Substantia Nigraia” value amounted to 7.1 ± 0.24 nmol/g · tissue. 20 min; the “Amount … Tuberculum Olfactorium” value was 4.8 ± 0.18 nmol/g · tissue. 20 min; the “Amount of noradrenaline released” value turned out to be 4.4 ± 0.10 nmol/g · tissue. 20 min. For the same compound, the “Amount of serotonin released, Raphe” value in series [1] (dose 0.0500 mg/kg s.c.) stood at 0.642 ± 0.02 nmol/g · tissue. 20 min. Moreover, in series [1] (dose 0.1000 mg/kg s.c.), the “Amount of dopamine released, Striatum” value came out at 5.8 ± 0.21 nmol/g · tissue. 20 min; the “Amount … Substantia Nigraia” value is given as 15.9 ± 0.25 nmol/g · tissue. 20 min; the “Amount … Tuberculum Olfactorium” value is 7.3 ± 0.20 nmol/g · tissue. 20 min; the “Amount of noradrenaline released” value is reported as 5.6 ± 0.25 nmol/g · tissue. 20 min. Besides, the “Amount of serotonin released, Raphe” value in series [1] (dose 0.1000 mg/kg s.c.) came to 0.381 ± 0.01 nmol/g · tissue. 20 min.
Consider `CCCNC(CCC)Cc1cc2ccccc2o1` (single isomer, unassigned; (-)) [The compound of the invention, (−)-1-(benzofuran-2-yl)-2-propylaminopentane hydrochloride], for which the IC50 on D1 receptor, at α1 receptor, at 5-HT1 receptor and at D2 receptor was > 10 µM throughout. The “Amount of dopamine released, Striatum” value is reported as 4.7 ± 0.14 nmol/g · tissue. 20 min in series [1] (dose 0.0001 mg/kg s.c.), 4.8 ± 0.16 nmol/g · tissue. 20 min in series [1] (dose 0.0005 mg/kg s.c.), 5.7 ± 0.19 nmol/g · tissue. 20 min in series [1] (dose 0.0025 mg/kg s.c.) and 6.5 ± 0.09 nmol/g · tissue. 20 min in series [1] (dose 0.0500 mg/kg s.c.). For the same compound, the “Amount … Substantia Nigraia” value stood at 14.8 ± 0.36 nmol/g · tissue. 20 min in series [1] (dose 0.0001 mg/kg s.c.), 13.8 ± 0.23 nmol/g · tissue. 20 min in series [1] (dose 0.0005 mg/kg s.c.), 13.1 ± 0.21 nmol/g · tissue. 20 min in series [1] (dose 0.0025 mg/kg s.c.) and 10.9 ± 0.11 nmol/g · tissue. 20 min in series [1] (dose 0.0500 mg/kg s.c.). For the same compound, the “Amount … Tuberculum Olfactorium” value in series [1] (dose 0.0001 mg/kg s.c.) was determined as 7.2 ± 0.23 nmol/g · tissue. 20 min; in series [1] (dose 0.0005 mg/kg s.c.), 6.7 ± 0.08 nmol/g · tissue. 20 min; in series [1] (dose 0.0025 mg/kg s.c.), 6.9 ± 0.31 nmol/g · tissue. 20 min; in series [1] (dose 0.0500 mg/kg s.c.) it was 7.7 ± 0.19 nmol/g · tissue. 20 min. Besides, the “Amount of noradrenaline released” value in series [1] (dose 0.0001 mg/kg s.c.) was found to be 6.6 ± 0.10 nmol/g · tissue. 20 min; in series [1] (dose 0.0005 mg/kg s.c.) it was 15.4 ± 0.55 nmol/g · tissue. 20 min; in series [1] (dose 0.0025 mg/kg s.c.), 3.9 ± 0.05 nmol/g · tissue. 20 min; in series [1] (dose 0.0500 mg/kg s.c.), 4.3 ± 0.25 nmol/g · tissue. 20 min. In addition, the “Amount of serotonin released, Raphe” value in series [1] (dose 0.0001 mg/kg s.c.) worked out at 1.040 ± 0.03 nmol/g · tissue. 20 min; in series [1] (dose 0.0005 mg/kg s.c.), 0.914 ± 0.03 nmol/g · tissue. 20 min; in series [1] (dose 0.0025 mg/kg s.c.), 0.421 ± 0.03 nmol/g · tissue. 20 min; in series [1] (dose 0.0500 mg/kg s.c.) it was 0.457 ± 0.01 nmol/g · tissue. 20 min. The “Survival of mice after single administration” value in the series on mice is on record as “every three numbers of mice survived”.
